According to patent US20050131029A1, “Immunophilin ligand treatment of antiretroviral toxic neuropathy” (priority 2003, published 2005):
Blank lines part the entries; values can stand above or below the compound they belong to.

Columns and labels:
[1] = system: primary DRG sensory neurons; test: Neuronal mitochondrial toxicity assay (JC-1 red:green fluorescence in TTC-labeled neurons); details: 4 hours; NRTIs 1-100 μM, FCCP 25 μM
[2] = system: primary DRG sensory neurons; format: cell-based
[3] = system: primary DRG sensory neurons; format: cell-based, rat; details: for relative neurotoxicity (potency in inhibiting neuritic outgrowth): comparison between NRTIs
Schwann cells [4] = test: Cell death in Schwann cells of the co-cultures; format: cell-based, rat; details: ddC dose of 1 mM (data not shown)
[5] = system: primary DRG sensory neurons; details: rat, 4 h
Schwann cells [6] = system: Schwann cells
[7] = NRTI 1-100 μM added at 3 hours, 15 hours of further incubation

Compound: N#CC(C#N)=NNc1ccc(OC(F)(F)F)cc1 [FCCP]
JC-1 red:green luminosity ratio (mitochondrial membrane potential differential) [1]: loss of mitochondrial membrane potential

Compound: C=CC[C@@H]1/C=C(\C)C[C@H](C)C[C@H](OC)[C@H]2O[C@@](O)(C(=O)C(=O)N3CCCC[C@H]3C(=O)O[C@H](/C(C)=C/[C@@H]3CC[C@@H](O)[C@H](OC)C3)[C@H](C)[C@@H](O)CC1=O)[C@H](C)C[C@@H]2OC [FK506]
concentrations at which prevention of neuronal cell death was most prominent ([2]; ddC 10 μM, 18 hours): 10 to 100 nM

Compound: Cc1cn([C@H]2C[C@H](N=[N+]=[N-])[C@@H](CO)O2)c(=O)[nH]c1=O [AZT, zidovudine]
effect on neuritic morphology [3, 7]: did not have any appreciable effect on neuritic morphology, even at high doses
relative neurotoxicity (potency in inhibiting neuritic outgrowth) [3]: did not exert significant neurotoxicity

Compound: Nc1ccn([C@H]2CC[C@@H](CO)O2)c(=O)n1 [ddC, 2′,3′-dideoxycytidine]
effect on neuritic morphology [3, 7]: frank neuritic degeneration was also seen
total neuritic length and number of neurites per neuron [3, 7]: dose-dependent reduction
relative neurotoxicity (potency in inhibiting neuritic outgrowth) [3]: most neurotoxic
TUNEL staining of neurons (marker of apoptosis) ([2]; ddC 10 μM, 18 hours (data not shown)): lack of DNA laddering
neuronal cell death (percentage of neurons labeling with live-cell marker) ([2]; exposure for 18 hours, varying doses): higher doses of ddC were associated with a lower percentage of neurons labeling with the “live-cell” marker
cell death in Schwann cells (Schwann cells [4]): no cell death
concentration achieving the same level of mitochondrial membrane depolarization as (25 μM) FCCP [5]: 1 µM
mitochondrial depolarization in Schwann cells (Schwann cells [6]): no evidence of mitochondrial depolarization

concentration achieving the same level of mitochondrial membrane depolarization as (25 μM) FCCP [5]: 1 µM
Compound: O=c1[nH]cnc2c1ncn2[C@H]1CC[C@@H](CO)O1 [ddl, didanosine]
